What is called Kd is the concentration at which binding is half-saturated. Read a low Kd as tighter binding.

Advanced glycosylation end product-specific receptor, sequence (Q15109 whole entry): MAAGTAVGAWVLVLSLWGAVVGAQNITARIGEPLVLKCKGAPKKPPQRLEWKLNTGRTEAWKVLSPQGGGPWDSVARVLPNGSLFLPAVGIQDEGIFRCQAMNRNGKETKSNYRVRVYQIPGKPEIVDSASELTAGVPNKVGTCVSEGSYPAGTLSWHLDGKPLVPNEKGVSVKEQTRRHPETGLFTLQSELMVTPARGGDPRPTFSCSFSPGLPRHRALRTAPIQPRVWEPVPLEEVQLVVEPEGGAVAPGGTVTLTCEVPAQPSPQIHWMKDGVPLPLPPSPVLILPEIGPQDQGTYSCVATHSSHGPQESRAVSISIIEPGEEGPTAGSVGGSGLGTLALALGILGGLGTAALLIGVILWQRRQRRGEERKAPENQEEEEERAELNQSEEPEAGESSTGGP

For this assay, the target named is Advanced glycosylation end product-specific receptor (Homo sapiens, UniProt Q15109). In words: Inhibitory Activity Assay. As for the experimental part:
Table 2-3: Step 1. Add 50 μl anti-DIAPH1 (1:160 dilution in 0.1M NaHCO3 pH 9.6)/well. Incubate overnight at 4° C. Day 2 Step 2. Use the plate washer to aspirate anti-DIAPH11 and wash plates 4× with PBS 100 μl per well per wash. Step 3. Add 180 μl 3% BSA in 1×PBS. Incubate for 1.5 hrs at room temperature Step 4. Use the plate washer to aspirate the blocking solution and wash 5× with PBS 300 μl per well. Step 5. Add 50 μl of DIAPH1 containing lysate (85 μg) and incubate at RT for 3 hours. Step 6. Aspirate the lysate and wash the plate 5×(100 μl) on the plate washer. Step 7. Add 25 μl PBS to the wells. Step 8. Add 0.5 μL compound per well. Step 9. Add 24.5 μL GFP RAGE tail (125 nM) into each well for 2 hrs at room temperature. Step 10. Aspirate and wash 5× with PBS (100 μL) on the plate washer. Step 11. Add 100 μl PBS in each well. Step 12. Detection: Read on fluorescence plate reader excitation 435 nm and 485 nm emission
Take `CC(=O)Nc1ccc(-c2cc(C(=O)NCCN(C)C)c3ccccc3n2)cc1` [US11192859, Compound 4]: binding was put at a Kd of 56 µM.
Turning to `CC(=O)Nc1ccc(-c2cc(C(=O)N3CCOCC3)c3ccccc3n2)cc1` [US11192859, Compound 5], binding was characterised by a dissociation constant (Kd) of 41 µM. The Kd values of the last two compounds are within 1.5-fold of each other.
The value for `COCCNC(=O)c1cc(-c2ccc(NC(C)=O)cc2)nc2ccccc12` [US11192859, Compound 6] was 99 µM; that for `CC(=O)Nc1ccc(-c2cc(C(=O)N3CCCC3)c3ccccc3n2)cc1` [US11192859, Compound 7] was 77 µM.
